The results in this text go back to article PMC10755736, “Modulating Liquid–Liquid Phase Separation of Nck Adaptor Protein against Enteropathogenic Escherichia coli Infection” (ACS Central Science, 2023).

For one test, the target named is T1, Nck/N-WASP/3pY (Homo sapiens, UniProt P16333).
T1 construct: GST (followed by PreScission/HRV 3C site) (N, cleaved yes); made in house; host or cells: E. coli BL21(DE3)
The test can be described thus: Turbidity assay of Nck/N-WASP/3pY solution. In kind it is biochemical. Conditions: Nck droplets; text cites Figures S12 and S13. The protocol:
Next, we explored the intervention of Nck/N-WASP/3pY LLPS using pY peptides (Figure 3a). Three pY-containing peptides extracted from different Tir sequences were synthesized, namely, peptides Y474, Y751, and Y147 (Figure 3b).
Figure 3 pY peptides disrupt Nck/N-WASP/3pY LLPS. (a) Sequences of synthetic pY peptides. […] Nck: 20 μM; N-WASP: 10 μM; 3pY: 10 μM. Scale bars, 20 μm. (c) Peptide Y474 rapidly decreases the turbidity of the Nck/N-WASP/3pY solution in around 20 min. Nck: 20 μM, N-WASP: 10 μM, 3pY: 10 μM. […] Nck: 20 μM, N-WASP: 10 μM, 3pY: 10 μM.
(Cytiva, Hong Kong) using a gradient from 100 to 500 mM NaCl and Superdex 75 10/300 GL column (Cytiva, Hong Kong) in 25 mM HEPES, 150 mM NaCl, and 2 mM βME at pH 7.5.
Proteins were buffer-exchanged through a Hi-trap desalting column (Cytiva, Hong Kong) to the reaction buffer. For Cy5 labeling, the buffer was 0.1 M sodium bicarbonate buffer at pH 8.3. For FITC labeling, the buffer was 50 mM sodium borate at pH 8.5. […]
Fluorescence Recovery after Photobleaching (FRAP) Assay
Fluorescence recovery in vitro was conducted with a DMi8 microscope (Leica, Germany). […]
The fluorescence intensity was quantified and normalized by ImageJ.
Fluorescence recovery after photobleaching experiments inside mammalian cells was conducted with a two-photon imaging system using a custom-built upright microscope, based on a previously used imaging setup. […]

The test system of test [1] is Nck-SH2. As to the kind of experiment: Mass spectrometric analysis of Nck-p1 conjugate. It is filed as binding. The protocol: We next identified the residues in Nck-SH2 that are involved in the reaction with p1 by mass spectrometry. […] The Nck–p1 conjugate was digested with trypsin, and peptide fragments were analyzed with an in-line EASY-spray source and nano-LC UltiMate 3000 HPLC system interfaced with an Elite mass spectrometer, operated in the data-dependent acquisition (DDA) mode with one full MS scan at R = 60,000 (m/z = 200) mass followed by HCD MS/MS scans. […] The fragmentation spectral analysis of [EEHIpYXEVAAD(α)] + [HFKVQLK(β)] extracted by pLabel v2.4.3.0 (Figure 5a and Figure S6 in the Supporting Information)[38],[39] confirmed the ligand-directed conjugation of Nck-SH2 protein with p1 peptide. The underlined lysine residue in the β-chain sequence indicated the cross-linked site on the predicted Nck Lys331 residue. Next, we mutated Nck Lys331 to Ala, expressed and purified the Nck-SH2K331A mutant. […]
(§1) The reaction mixture of Nck and p1 were digested with trypsin. Digested peptides were analyzed with an in-line EASY-spray source and nano-LC UltiMate 3000 high-performance liquid chromatography system (Thermo Fisher, USA) interfaced with an Elite mass spectrometer (Thermo Fisher, USA). The eluted peptides were detected by the Elite mass spectrometer, which was operated in data-dependent mode with one full MS scan at R = 60,000 (m/z = 200) mass, followed by MS/MS scans. […]

The subject of test [2] is Nck-SH2. As to the kind of experiment: Covalent reaction of p1 with wild-type Nck-SH2. Conditions: cell lysate in vitro and in the cytosol. In kind it is binding. The protocol: Figure 5 Peptide p1 reacts with Lys 331. (a) MS/MS analysis of the conjugated site between p1 peptide and Nck-SH2 at Lys331. The corresponding mass data are shown in Figure S6 in the Supporting Information. […] Purified recombinant proteins were incubated with peptides in PBS buffer at 37 °C for 1 min (left) or 10 min (right). Molecular weight markers are shown in the middle. Red arrows indicate the covalent peptide–protein complex. […]
ether and purified by reverse-phase HPLC on a C18 column using acetonitrile/H2O (with 0.1% TFA) gradient on a reversed-phase C18 column, confirmed by MALDI-TOF MS analysis (Bruker, USA).
Pure peptides were lyophilized.
Crosslinking of Peptides with Nck in vitro
Purified peptides were incubated with the recombinantly expressed Nck protein (10 μM) in PBS buffer at 37 °C. After incubation, 5´ loading buffer was added into the solution and heated at 100 °C for 10 min. […]
as §1

Another test addresses T2, Nck (Homo sapiens, UniProt P16333).
T2 construct: GST (followed by PreScission/HRV 3C site) (N, cleaved yes); made in house; host or cells: E. coli BL21(DE3)
The test can be described thus: Reaction of peptides with Nck in Caco-2 cell lysate (Western blotting). Conditions: lysate of Caco-2 cells (5 µg/µl) overexpressing Nck; peptide 10 µM, 37 °C, 60 min; anti-Nck Western blot. In kind it is binding. The method, then:
(§2) In addition, we performed the reaction between p1 and Nck in a cell lysate, representing a complex solution. We incubated peptide p1 with the lysate of Caco-2 cells overexpressing Nck, and the reaction mixture was resolved on SDS-PAGE and analyzed with Western blotting against an anti-Nck antibody. […] Next, we incubated biotinylated peptide Y474 and Nck solutions with or without p1 peptide, and pulled down proteins that bound with biotinylated Y474.
Figure S7. Reaction of p1 in cell lysate. Biotinylated p1 peptide (10 µM) was incubated with the
lysate of Caco-2 cells (5 µg/µl)to react at 37 °C for 60 min before the mixture was resolved on SDS-
PAGE. Western blotting experiments using an anti-biotin antibody and an anti-Nck antibody, […]
(A western blot detects proteins with antibodies after separation by electrophoresis.)

In test [3] the test system is Nck-SH2. As to the kind of experiment: Competitive pull-down of Nck with biotinylated Y474. The conditions noted are these: with or without p1. It is filed as binding. The method, then: as §2

Molecules are shown by their SMILES. Non-standard residues stand in square brackets, D forms with d. Residues, ends and D or L forms follow the SMILES beside them. *: point of attachment. Biotin = O=C1N[C@H]2[C@H](CS[C@H]2CCCCC(=O)*)N1; Benzoyl(4-SO2F) = O=C(c1ccc(S(=O)(=O)F)cc1)*; pY = N[C@@H](Cc1ccc(OP(=O)(O)O)cc1)C(=O)O; Dap = NC[C@H](N)C(=O)O

Take `CC[C@H](C)[C@H](NC(=O)[C@H](Cc1c[nH]cn1)NC(=O)[C@H](CCC(=O)O)NC(=O)[C@H](CCC(=O)O)NC(=O)CCCC[C@@H]1SC[C@@H]2NC(=O)N[C@@H]21)C(=O)N[C@@H](Cc1ccc(OP(=O)(O)O)cc1)C(=O)N[C@@H](CNC(=O)c1ccc(S(=O)(=O)F)cc1)C(=O)N[C@@H](CCC(=O)O)C(=O)N[C@H](C(=O)N[C@@H](C)C(=O)N[C@@H](C)C(=O)N[C@@H](CC(=O)O)C(N)=O)C(C)C` [p1] (Biotin-EEHI[pY][Dap](Benzoyl(4-SO2F))EVAAD-NH2; N-terminus and C-terminus assumed): at Nck/N-WASP/3pY, the “reduction of solution turbidity, p1 and Y474 compared” value is reported as “reduce the turbidity of the solution”. Further, in the test with Nck-SH2 [1] (Nck and Nck-p1 conjugate), the “conjugation stoichiometry by LC-MS” value was “only one p1 was conjugated with Nck”. Besides, in the test with Nck-SH2 [1] (trypsin digest, MS/MS, K331A mutation), the “reaction site on Nck-SH2” value is recorded as “Lys331”. In addition, in the test with Nck-SH2 [2], the “reactivity with Nck-SH2” value is listed as “high reactivity with Nck-SH2”. At Nck, the “Nck band shift in cell lysate” value is recorded as “complete band shift”. Also, in the test with Nck-SH2 [3], the “binding of Nck to biotinylated Y474 in pull-down” value was “the Nck protein did not bind with Y474”.
